Data reported in patent US20120264735A1 (priority 2009, published 2012).

Biological target: T1, c-Met kinase (recombinant c-Met) (Homo sapiens, UniProt P08581)
T1 construct: 0.27 nM recombinant c-Met
Assay: In vitro kinase assay I (homogeneous time-resolved fluorescence tyrosine kinase assay)
Format: biochemical
Summary of the method: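 Biotinylated peptide (0.5 μM) phosphorylated by 0.2 nM recombinant c-Met with 50 μM MgATP, 60 min at room temperature, pH 7.4, 5% DMSO. EDTA stop; HTRF read with Eu-anti-phosphotyrosine antibody and streptavidin-APC. IC50 from 4-parameter logistic fit.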

T1 sequence (P08581 25-1390): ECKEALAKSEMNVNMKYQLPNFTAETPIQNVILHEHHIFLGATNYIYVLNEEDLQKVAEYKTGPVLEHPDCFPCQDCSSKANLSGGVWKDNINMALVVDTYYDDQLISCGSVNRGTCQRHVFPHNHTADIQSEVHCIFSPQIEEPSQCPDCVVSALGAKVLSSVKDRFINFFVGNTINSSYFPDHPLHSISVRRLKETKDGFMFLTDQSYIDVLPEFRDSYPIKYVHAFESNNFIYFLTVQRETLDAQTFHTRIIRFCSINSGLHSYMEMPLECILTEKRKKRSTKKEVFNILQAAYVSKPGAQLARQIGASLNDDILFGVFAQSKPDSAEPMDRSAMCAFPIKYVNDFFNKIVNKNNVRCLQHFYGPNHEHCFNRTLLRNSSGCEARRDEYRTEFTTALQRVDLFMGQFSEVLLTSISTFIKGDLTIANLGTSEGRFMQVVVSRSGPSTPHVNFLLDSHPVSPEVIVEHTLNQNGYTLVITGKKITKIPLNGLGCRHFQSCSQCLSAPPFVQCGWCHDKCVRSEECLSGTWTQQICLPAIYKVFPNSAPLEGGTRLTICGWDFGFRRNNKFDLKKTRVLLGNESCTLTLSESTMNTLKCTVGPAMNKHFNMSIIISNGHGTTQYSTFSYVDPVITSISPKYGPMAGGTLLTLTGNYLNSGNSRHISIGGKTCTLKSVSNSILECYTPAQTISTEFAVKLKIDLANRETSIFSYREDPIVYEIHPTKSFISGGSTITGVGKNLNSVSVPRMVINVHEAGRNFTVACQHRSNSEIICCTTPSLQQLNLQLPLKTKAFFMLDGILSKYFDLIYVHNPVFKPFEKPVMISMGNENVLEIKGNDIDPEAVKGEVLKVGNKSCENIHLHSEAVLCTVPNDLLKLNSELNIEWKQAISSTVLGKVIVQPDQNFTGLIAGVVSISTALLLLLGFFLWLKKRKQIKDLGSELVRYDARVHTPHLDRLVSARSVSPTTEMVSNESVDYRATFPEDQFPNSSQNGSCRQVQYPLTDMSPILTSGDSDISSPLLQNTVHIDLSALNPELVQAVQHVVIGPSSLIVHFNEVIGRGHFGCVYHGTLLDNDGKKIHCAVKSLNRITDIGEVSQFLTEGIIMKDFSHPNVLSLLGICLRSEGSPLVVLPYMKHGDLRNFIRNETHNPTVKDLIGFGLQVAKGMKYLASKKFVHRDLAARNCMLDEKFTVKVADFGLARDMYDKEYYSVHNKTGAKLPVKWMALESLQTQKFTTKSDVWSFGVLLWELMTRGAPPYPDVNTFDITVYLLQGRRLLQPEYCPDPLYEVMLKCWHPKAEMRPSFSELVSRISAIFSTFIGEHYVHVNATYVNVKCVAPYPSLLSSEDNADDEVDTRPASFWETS

SMILES	IC50 [µM]
COCCOC(=O)Nc1cccc(Cc2nn(-c3cn[nH]c3)ccc2=O)c1 [Example 196, 2-methoxyethyl (3-{[4-oxo-1-(1H-pyrazol-4-yl)-1,4-dihydropyridazin-3-yl]methyl}phenyl)carbamate]	< 0.1
CC(C)COC(=O)Nc1cccc(Cc2nn(-c3cn[nH]c3)ccc2=O)c1 [Example 197, isobutyl (3-{[4-oxo-1-(1H-pyrazol-4-yl)-1,4-dihydropyridazin-3-yl]methyl}phenyl)carbamate]	< 0.1
Cn1cc(-n2ccc(=O)c(Cc3cccc(-c4ncc(C5CCNCC5)cn4)c3)n2)cn1 [Example 200, 1-(1-Methyl-1H-pyrazol-4-yl)-3-{3-[5-(piperidin-4-yl)pyrimidin-2-yl]benzyl}pyridazin-4(1H)-one]	< 0.1
Cn1cc(-n2ccc(=O)c(Cc3cccc(-c4ncc(OCC(F)(F)CN5CCOCC5)cn4)c3)n2)cn1 [Example 259, 3-(3-{5-[2,2-Difluoro-3-(morpholin-4-yl)propoxy]pyrimidin-2-yl}benzyl)-1-(1-methyl-1H-pyrazol-4-yl)pyridazin-4(1H)-one]	< 0.1
CC(C)COc1cnc(-c2cccc(Cc3nn(-c4cnn(C)c4)ccc3=O)c2)nc1 [Example 261, 3-{3-[5-(2-methylpropoxy)pyrimidin-2-yl]benzyl}-1-(1-methyl-1H-pyrazol-4-yl)pyridazin-4(1H)-one]	< 0.1
Cn1cc(-n2ccc(=O)c(Cc3cccc(-c4ncc(OCC5CCOCC5)cn4)c3)n2)cn1 [Example 262, 1-(1-methyl-1H-pyrazol-4-yl)-3-{3-[5-(tetrahydro-2H-pyran-4-ylmethoxy)pyrimidin-2-yl]benzyl}pyridazin-4(1H)-one]	< 0.1
Cn1cc(-n2ccc(=O)c(Cc3cccc(-c4ncc(OCCN5CCOCC5)cn4)c3)n2)cn1 [Example 263, 1-(1-methyl-1H-pyrazol-4-yl)-3-{3-[5-(2-morpholin-4-ylethoxy)pyrimidin-2-yl]benzyl}pyridazin-4(1H)-one]	< 0.1
Cn1cc(-n2ccc(=O)c(Cc3cccc(-c4ncc(OCCO)cn4)c3)n2)cn1 [Example 264, 3-{3-[5-(2-hydroxyethoxy)pyrimidin-2-yl]benzyl}-1-(1-methyl-1H-pyrazol-4-yl)pyridazin-4(1H)-one]	< 0.1
Cn1cc(-n2ccc(=O)c(Cc3cccc(-c4ncc(OCCn5cccn5)cn4)c3)n2)cn1 [Example 265, 1-(1-methyl-1H-pyrazol-4-yl)-3-(3-{5-[2-(1H-pyrazol-1-yl)ethoxy]pyrimidin-2-yl}benzyl)pyridazin-4(1H)-one]	< 0.1
COC(C)(C)COc1cnc(-c2cccc(Cc3nn(-c4cnn(C)c4)ccc3=O)c2)nc1 [Example 267, 3-{3-[5-(2-methoxy-2-methylpropoxy)pyrimidin-2-yl]benzyl}-1-(1-methyl-1H-pyrazol-4-yl)pyridazin-4(1H)-one]	< 0.1
Cn1cc(-n2ccc(=O)c(Cc3cccc(-c4ncc(OCC5(CO)COC5)cn4)c3)n2)cn1 [Example 268, 3-[3-(5-{[3-(hydroxymethyl)oxetan-3-yl]methoxy}pyrimidin-2-yl)benzyl]-1-(1-methyl-1H-pyrazol-4-yl)pyridazin-4(1H)-one]	< 0.1
CC(C)Oc1cnc(-c2cccc(Cc3nn(-c4cnn(C)c4)ccc3=O)c2)nc1 [Example 270, 3-{3-[5-(1-methylethoxy)pyrimidin-2-yl]benzyl}-1-(1-methyl-1H-pyrazol-4-yl)pyridazin-4(1H)-one]	< 0.1
Cn1cc(-n2ccc(=O)c(Cc3cccc(-c4ncc(OCCn5cncn5)cn4)c3)n2)cn1 [Example 271, 1-(1-methyl-1H-pyrazol-4-yl)-3-(3-{5-[2-(1H-1,2,4-triazol-1-yl)ethoxy]pyrimidin-2-yl}benzyl)pyridazin-4(1H)-one]	< 0.1
Cn1cc(-n2ccc(=O)c(Cc3cccc(-c4ncc(OCC5(F)COC5)cn4)c3)n2)cn1 [Example 272, 3-(3-{5-[(3-fluorooxetan-3-yl)methoxy]pyrimidin-2-yl}benzyl)-1-(1-methyl-1H-pyrazol-4-yl)pyridazin-4(1H)-one]	< 0.1
Cn1cc(-n2ccc(=O)c(Cc3cccc(-c4ncc(OCCc5cnoc5)cn4)c3)n2)cn1 [Example 273, 3-{3-[5-(2-isoxazol-4-ylethoxy)pyrimidin-2-yl]benzyl}-1-(1-methyl-1H-pyrazol-4-yl)pyridazin-4(1H)-one]	< 0.1
Cn1cc(-n2ccc(=O)c(Cc3cccc(-c4ncc(OCC(F)F)cn4)c3)n2)cn1 [Example 274, 3-{3-[5-(2,2-difluoroethoxy)pyrimidin-2-yl]benzyl}-1-(1-methyl-1H-pyrazol-4-yl)pyridazin-4(1H)-one]	< 0.1
[2H]C([2H])([2H])C([2H])([2H])Oc1cnc(-c2cccc(Cc3nn(-c4cnn(C)c4)ccc3=O)c2)nc1 [Example 275, 3-[3-(5-ethoxypyrimidin-2-yl)benzyl]-1-(1-methyl-1H-pyrazol-4-yl)pyridazin-4(1H)-one-d5]	< 0.1

SMILES	IC50 [µM]
Cn1cc(-n2ccc(=O)c(Cc3cccc(-c4ncc(OC5CCOCC5)cn4)c3)n2)cn1 [Example 277, 1-(1-methyl-1H-pyrazol-4-yl)-3-{3-[5-(tetrahydro-2H-pyran-4-yloxy)pyrimidin-2-yl]benzyl}pyridazin-4(1H)-one]	< 0.1
Cn1cc(-n2ccc(=O)c(Cc3cccc(-c4ncc(OCC5CC5)cn4)c3)n2)cn1 [Example 278, 3-{3-[5-(cyclopropylmethoxy)pyrimidin-2-yl]benzyl}-1-(1-methyl-1H-pyrazol-4-yl)pyridazin-4(1H)-one]	< 0.1
CN(C)C(=O)COc1cnc(-c2cccc(Cc3nn(-c4cnn(C)c4)ccc3=O)c2)nc1 [Example 279, N,N-dimethyl-2-{[2-(3-{[1-(1-methyl-1H-pyrazol-4-yl)-4-oxo-1,4-dihydropyridazin-3-yl]methyl}phenyl)pyrimidin-5-yl]oxy}acetamide]	< 0.1
Cn1cc(-n2ccc(=O)c(Cc3cccc(-c4ncc(OCC(=O)N5CCOCC5)cn4)c3)n2)cn1 [Example 280, 1-(1-methyl-1H-pyrazol-4-yl)-3-{3-[5-(2-morpholin-4-yl-2-oxoethoxy)pyrimidin-2-yl]benzyl}pyridazin-4(1H)-one]	< 0.1
Cc1nc(COc2cnc(-c3cccc(Cc4nn(-c5cnn(C)c5)ccc4=O)c3)nc2)no1 [Example 281, 3-(3-{5-[(5-methyl-1,2,4-oxadiazol-3-yl)methoxy]pyrimidin-2-yl}benzyl)-1-(1-methyl-1H-pyrazol-4-yl)pridazin-4(1H)-one]	< 0.1
Cn1cc(-n2ccc(=O)c(Cc3cccc(-c4ncc(OCc5noc(C6CC6)n5)cn4)c3)n2)cn1 [Example 282, 3-(3-{5-[(5-cyclopropyl-1,2,4-oxadiazol-3-yl)methoxy]pyrimidin-2-yl}benzyl)-1-(1-methyl-1H-pyrazol-4-yl)pyridazin-4(1H)-one]	< 0.1
CC(C)c1nc(COc2cnc(-c3cccc(Cc4nn(-c5cnn(C)c5)ccc4=O)c3)nc2)no1 [Example 283, 3-[3-(5-{[5-(1-methylethyl)-1,2,4-oxadiazol-3-yl]methoxy}pyrimidin-2-yl)benzyl]-1-(1-methyl-1H-pyrazol-4-yl)pyridazin-4(1H)-one]	< 0.1
Cn1cc(-n2ccc(=O)c(Cc3cccc(-c4ncc(OCc5ccsn5)cn4)c3)n2)cn1 [Example 284, 3-{3-[5-(isothiazol-3-ylmethoxy)pyrimidin-2-yl]benzyl}-1-(1-methyl-1H-pyrazol-4-yl)pyridazin-4(1H)-one]	< 0.1
Cc1cc(COc2cnc(-c3cccc(Cc4nn(-c5cnn(C)c5)ccc4=O)c3)nc2)no1 [Example 285, 3-(3-{5-[(5-methylisoxazol-3-yl)methoxy]pyrimidin-2-yl}benzyl)-1-(1-methyl-1H-pyrazol-4-yl)pyridazin-4(1H)-one]	< 0.1
Cc1cc(COc2cnc(-c3cccc(Cc4nn(-c5cnn(C)c5)ccc4=O)c3)nc2)on1 [Example 286, 3-(3-{5-[(3-methylisoxazol-5-yl)methoxy]pyrimidin-2-yl}benzyl)-1-(1-methyl-1H-pyrazol-4-yl)pyridazin-4(1H)-one]	< 0.1
Cn1cc(-n2ccc(=O)c(Cc3cccc(-c4ncc(OCC(=O)OC(C)(C)C)cn4)c3)n2)cn1 [Example 287, tert-butyl [2-(3-{[1-(1-methyl-1H-pyrazol-4-yl)-4-oxo-1,4-dihydropyridazin-3-yl]methyl}phenyl)pyrimidin-5-yl]oxyacetate]	< 0.1
CCn1cc(-n2ccc(=O)c(Cc3cccc(-c4ncc(OCC5CCN(C(=O)OC(C)(C)C)CC5)cn4)c3)n2)cn1 [Example 288, tert-butyl 4-({[2-(3-{[1-(1-ethyl-1H-pyrazol-4-yl)-4-oxo-1,4-dihydropyridazin-3-yl]methyl}phenyl)pyrimidin-5-yl]oxy}methyl)piperidine-1-carboxylate]	< 0.1
CCn1cc(-n2ccc(=O)c(Cc3cccc(-c4ncc(OC5CN(C(=O)OC(C)(C)C)C5)cn4)c3)n2)cn1 [Example 289, tert-butyl 3-{[2-(3-{[1-(1-ethyl-1H-pyrazol-4-yl)-4-oxo-1,4-dihydropyridazin-3-yl]methyl}phenyl)pyrimidin-5-yl]oxy}azetidine-1-carboxylate]	< 0.1
CCn1cc(-n2ccc(=O)c(Cc3cccc(-c4ncc(OC(C)C)cn4)c3)n2)cn1 [Example 305, 1-(1-ethyl-1H-pyrazol-4-yl)-3-[3-(5-isopropoxypyrimidin-2-yl)benzyl]pyridazin-4(1H)-one]	< 0.1
CCn1cc(-n2ccc(=O)c(Cc3cccc(-c4ncc(OCC(F)F)cn4)c3)n2)cn1 [Example 306, 3-{3-[5-(2,2-difluoroethoxy)pyrimidin-2-yl]benzyl}-1-(1-ethyl-1H-pyrazol-4-yl)pyridazin-4(1H)-one]	< 0.1
CCn1cc(-n2ccc(=O)c(Cc3cccc(-c4ncc(OCCO)cn4)c3)n2)cn1 [Example 307, 1-(1-ethyl-1H-pyrazol-4-yl)-3-{3-[5-(2-hydroxyethoxy)pyrimidin-2-yl]benzyl}pyridazin-4(1H)-one]	< 0.1
CCn1cc(-n2ccc(=O)c(Cc3cccc(-c4ncc(OCCN5CCOCC5)cn4)c3)n2)cn1 [Example 312, 1-(1-ethyl-1H-pyrazol-4-yl)-3-{3-[5-(2-morpholin-4-ylethoxy)pyrimidin-2-yl]benzyl}pyridazin-4(1H)-one]	< 0.1
